Results: patent US7183075B2, “Purified and isolated potassium-chloride cotransporter nucleic acids and polypeptides and therapeutic and screening methods using same” (Vanderbilt University, priority 2000, dated 2007)
Like-named read-outs stand apart in the source and are kept apart here.

Molecular target: T1, xKCC (Xenopus laevis, UniProt A0A1L8HZL0)
T1 sequence (A0A1L8HZL0 1-1133): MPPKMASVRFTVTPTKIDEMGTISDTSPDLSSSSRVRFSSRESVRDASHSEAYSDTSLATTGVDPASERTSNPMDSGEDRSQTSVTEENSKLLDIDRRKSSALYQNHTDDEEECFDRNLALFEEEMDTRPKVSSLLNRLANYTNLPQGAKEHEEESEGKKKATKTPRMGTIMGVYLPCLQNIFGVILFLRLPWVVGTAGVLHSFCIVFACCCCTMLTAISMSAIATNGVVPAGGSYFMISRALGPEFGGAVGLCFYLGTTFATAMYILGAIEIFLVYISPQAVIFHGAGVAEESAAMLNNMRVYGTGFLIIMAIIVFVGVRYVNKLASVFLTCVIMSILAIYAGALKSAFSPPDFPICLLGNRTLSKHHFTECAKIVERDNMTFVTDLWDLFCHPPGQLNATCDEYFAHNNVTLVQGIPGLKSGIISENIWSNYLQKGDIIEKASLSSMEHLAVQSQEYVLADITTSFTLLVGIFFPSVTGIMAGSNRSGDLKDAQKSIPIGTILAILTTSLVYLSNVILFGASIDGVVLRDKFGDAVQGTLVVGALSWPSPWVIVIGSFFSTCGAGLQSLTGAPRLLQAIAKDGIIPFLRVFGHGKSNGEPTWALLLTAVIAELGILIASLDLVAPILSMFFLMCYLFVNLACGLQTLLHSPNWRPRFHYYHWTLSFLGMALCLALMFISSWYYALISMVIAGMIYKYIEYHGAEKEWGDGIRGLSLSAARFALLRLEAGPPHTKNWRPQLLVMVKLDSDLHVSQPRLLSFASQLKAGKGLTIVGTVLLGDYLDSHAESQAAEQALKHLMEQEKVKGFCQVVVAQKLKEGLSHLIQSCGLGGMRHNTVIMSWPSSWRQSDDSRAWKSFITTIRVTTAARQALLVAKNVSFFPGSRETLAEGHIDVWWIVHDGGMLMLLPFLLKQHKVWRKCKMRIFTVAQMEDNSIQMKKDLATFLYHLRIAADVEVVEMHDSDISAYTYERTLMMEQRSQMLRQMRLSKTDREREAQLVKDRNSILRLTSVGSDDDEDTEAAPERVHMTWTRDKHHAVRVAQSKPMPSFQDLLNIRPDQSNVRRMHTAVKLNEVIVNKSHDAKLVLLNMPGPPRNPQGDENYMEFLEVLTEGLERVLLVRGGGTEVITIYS
Test: 86Rb+ uptake by the endogenous K+-Cl- cotransporter of water-injected Xenopus oocytes
Type: cell-based
Conditions: for Km: xKCC
Description: Oocytes were surgically collected from anesthetized female Xenopus adults under 0.17% tricaine and incubated for 1 hour with vigorous shaking in frog Ringer ND96 (96 mM sodium chloride, 2 mM potassium chloride, 1.8 mM calcium chloride, 1.0 mM magnesium chloride, and 5 mM Hepes/Tris, pH 7.4) in the presence of 2 mg/ml collagenase B. Oocytes were then washed four times in ND96, manually defolliculated, and incubated overnight in ND96 at 18° C. On the next day, defolliculated stage V–VI oocytes were injected with 50 nl of water or a solution containing cRNA at a concentration of 0.25–0.5 μg/μl (25 ng/oocyte). Oocytes were incubated at 17–18° C. in ND96 (96 mM sodium chloride, 2 mM potassium chloride, 1.8 mM calcium chloride, 1.0 mM magnesium chloride, and 5 mM Hepes/Tris, pH 7.4), supplemented with 2.5 mM sodium pyruvate and 5 mg/100 ml gentamicin, for 3–4 days. The incubation medium was changed every 24 hours. On the day of the experiment, oocytes were switched to Cl^−-free ND96 (96 mM Na^+ Na^+ isethionate, 2 mM K^+ gluconate, 6 mM Ca^2+ gluconate, 1 mM Mg^2+ gluconate, 5 mM Hepes, 2.5 mM sodium pyruvate, 5 mg/100 ml gentamicin, pH 7.4) for 2 hours prior to the uptake assay.
K^+—Cl^− cotransport was assessed by measuring tracer ^86Rb^+ uptake (NEN® Life Science Products of Boston, Mass.) in experimental groups of at least 15 oocytes. Since both KCC4 and KCC1 display minimal activity under isotonic conditions ^86Rb^+ uptake was generally assessed in oocytes swollen by a 30-minute incubation period in a hypotonic K^+ and Cl^−-free medium (50 mM N-methyl-D-glucamine (NMDG) gluconate, 4.6 mM Ca^2+ gluconate, 1.0 mM Mg^2+ gluconate, 5 mM Hepes, pH 7.4) with 1 mM ouabain, followed by a 60-minute uptake period in a hypotonic Na^+-free medium with variable K^+—Cl^− content. […] All uptake solutions also contained 1.8 mM CaCl2, 1 mM MgCl2, 5 mM Hepes, pH 7.4, and were supplemented with 1 mM ouabain and […] ^86Rb^+. […]
All uptake assays were performed at 32° C. […] Oocytes were dissolved in 10% SDS, and tracer activity was determined for each oocyte by β-scintillation counting.

## Cl [Chloride]
read-out: Chloride Km
  Km: 15.4 mM

## CCN1C(=O)C=CC1=O [NEM, N-ethylmaleimide]
NEM, H2O-injected oocytes, both isotonic and hypotonic
  86Rb+ uptake due to endogenous oocyte K+-Cl- cotransporter: significantly increased

## [K+] [Potassium]
read-out: Potassium Km
  Km: 27.7 mM
